Reference: patent US7446199B2, “Compositions useful as inhibitors of protein kinases” (Vertex Pharmaceuticals Incorporated, priority 2003, dated 2008)
pKi: −log10 of the molar value.

What was measured:
Format in all cases: biochemical
GSK-3β, (AA 1-420) = GSK-3β, (AA 1-420) (Homo sapiens, UniProt P49841); test: GSK-3 inhibition assay, coupled enzyme system; conditions: 20 μM ATP, 300 μM peptide, 20 nM GSK-3b, 30° C.; read-out: Ki values (GSK3)
Outline: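 Pyruvate kinase/lactate dehydrogenase-coupled NADH assay with 20 nM enzyme, 20 μM ATP and 300 μM peptide in HEPES pH 7.5, 1.5% DMSO, 30° C. Compound (0.002–30 μM, 12-point) preincubated 10 min before ATP start; rates over 10 min gave Ki.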

JAK3 = target: T1, JAK3 (Homo sapiens, UniProt P52333); test: JAK3 inhibition assay (ELISA, Poly (Glu, Ala, Tyr) coated plates); conditions: 2 mM ATP, 60 minutes at 30° C.
T1 sequence (P52333 1-1124): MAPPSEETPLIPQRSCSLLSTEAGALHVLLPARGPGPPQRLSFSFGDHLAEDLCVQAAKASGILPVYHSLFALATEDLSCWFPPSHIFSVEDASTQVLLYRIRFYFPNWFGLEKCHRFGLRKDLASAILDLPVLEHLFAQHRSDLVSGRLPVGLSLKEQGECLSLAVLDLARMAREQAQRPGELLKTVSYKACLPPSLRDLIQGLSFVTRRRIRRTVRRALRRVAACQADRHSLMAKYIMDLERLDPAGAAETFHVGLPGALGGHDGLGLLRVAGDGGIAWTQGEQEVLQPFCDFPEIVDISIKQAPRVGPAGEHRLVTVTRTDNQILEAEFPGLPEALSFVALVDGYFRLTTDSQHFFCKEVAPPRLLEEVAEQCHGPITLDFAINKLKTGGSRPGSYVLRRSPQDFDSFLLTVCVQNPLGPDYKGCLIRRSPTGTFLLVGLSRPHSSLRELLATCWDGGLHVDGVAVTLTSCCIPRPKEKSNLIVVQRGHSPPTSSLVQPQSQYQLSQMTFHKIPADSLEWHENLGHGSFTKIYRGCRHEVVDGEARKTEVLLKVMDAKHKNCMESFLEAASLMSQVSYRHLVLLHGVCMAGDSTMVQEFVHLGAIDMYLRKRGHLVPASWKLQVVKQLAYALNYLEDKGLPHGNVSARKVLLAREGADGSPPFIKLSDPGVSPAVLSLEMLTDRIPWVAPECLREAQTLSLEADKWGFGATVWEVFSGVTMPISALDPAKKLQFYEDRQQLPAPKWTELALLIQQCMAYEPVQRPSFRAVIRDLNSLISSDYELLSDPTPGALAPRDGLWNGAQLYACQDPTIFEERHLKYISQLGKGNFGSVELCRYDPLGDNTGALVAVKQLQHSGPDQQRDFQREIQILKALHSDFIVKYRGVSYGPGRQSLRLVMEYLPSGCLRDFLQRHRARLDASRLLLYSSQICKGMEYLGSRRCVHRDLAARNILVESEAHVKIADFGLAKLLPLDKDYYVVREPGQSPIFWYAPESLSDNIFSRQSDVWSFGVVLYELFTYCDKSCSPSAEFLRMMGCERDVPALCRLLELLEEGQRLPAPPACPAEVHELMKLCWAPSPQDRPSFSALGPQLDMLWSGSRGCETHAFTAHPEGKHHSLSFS
Outline: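 ELISA on Poly(Glu,Ala,Tyr) 6:3:1-coated plates with 2 mM ATP and 5 mM MgCl2. JAK enzyme started the reaction, run 60 min at 30° C. Phosphotyrosine was detected with HRP-conjugated 4G10 antibody and TMB, read at 450 nm, and IC50 was derived from optical densities.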

KDR = KDR (Homo sapiens, UniProt P35968); test: KDR enzyme assay, coupled enzyme assay; conditions: 300 μM ATP, 10 μM poly E4Y, 30 nM KDR, 37° C.
Outline: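 Coupled enzyme (PK/LDH, NADH) assay with 30 nM KDR in 200 mM HEPES 7.5, 10 mM MgCl2, 25 mM NaCl, 1 mM DTT, 1.5% DMSO; 300 μM ATP, 10 μM poly E4Y. Compound at 30 μM final, preincubated ~10 min at 37 °C before ATP start; rates read over 5 min at 37 °C.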

Sequence of KDR (P35968 20-1356): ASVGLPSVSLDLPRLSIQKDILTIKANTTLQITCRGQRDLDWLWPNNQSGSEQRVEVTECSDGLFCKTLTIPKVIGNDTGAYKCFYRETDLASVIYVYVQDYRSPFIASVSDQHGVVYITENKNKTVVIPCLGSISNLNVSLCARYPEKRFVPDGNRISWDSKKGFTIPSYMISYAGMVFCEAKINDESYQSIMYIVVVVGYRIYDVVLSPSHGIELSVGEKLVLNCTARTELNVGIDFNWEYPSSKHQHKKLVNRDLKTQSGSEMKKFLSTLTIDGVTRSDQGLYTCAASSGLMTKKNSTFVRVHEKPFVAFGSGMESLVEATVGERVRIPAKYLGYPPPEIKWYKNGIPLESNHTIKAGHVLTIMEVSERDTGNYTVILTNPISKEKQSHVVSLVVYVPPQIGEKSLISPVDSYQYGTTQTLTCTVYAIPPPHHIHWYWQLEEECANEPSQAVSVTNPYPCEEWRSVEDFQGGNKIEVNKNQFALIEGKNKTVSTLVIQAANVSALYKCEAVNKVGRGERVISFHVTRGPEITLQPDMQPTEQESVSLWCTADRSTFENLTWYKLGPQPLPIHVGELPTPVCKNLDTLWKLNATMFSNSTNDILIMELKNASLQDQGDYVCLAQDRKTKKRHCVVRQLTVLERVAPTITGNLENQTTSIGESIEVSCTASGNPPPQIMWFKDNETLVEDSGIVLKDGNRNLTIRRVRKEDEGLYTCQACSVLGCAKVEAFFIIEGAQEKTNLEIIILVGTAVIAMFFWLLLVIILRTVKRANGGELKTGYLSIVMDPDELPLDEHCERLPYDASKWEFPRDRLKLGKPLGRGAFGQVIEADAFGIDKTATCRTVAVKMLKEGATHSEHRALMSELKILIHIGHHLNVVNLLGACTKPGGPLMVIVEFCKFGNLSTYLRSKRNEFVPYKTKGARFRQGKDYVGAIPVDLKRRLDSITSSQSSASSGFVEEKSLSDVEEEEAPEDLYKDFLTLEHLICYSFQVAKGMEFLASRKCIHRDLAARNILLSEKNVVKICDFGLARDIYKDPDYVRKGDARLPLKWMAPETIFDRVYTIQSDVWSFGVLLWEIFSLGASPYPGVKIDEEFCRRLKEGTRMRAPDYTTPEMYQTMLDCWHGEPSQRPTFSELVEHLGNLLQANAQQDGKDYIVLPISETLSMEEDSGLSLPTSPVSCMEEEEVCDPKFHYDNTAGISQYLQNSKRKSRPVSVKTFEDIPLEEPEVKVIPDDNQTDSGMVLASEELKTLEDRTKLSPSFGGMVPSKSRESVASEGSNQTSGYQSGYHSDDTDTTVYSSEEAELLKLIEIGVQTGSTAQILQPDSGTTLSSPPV
Sequence of GSK-3β, (AA 1-420) (P49841 whole entry, the tested form may be a part): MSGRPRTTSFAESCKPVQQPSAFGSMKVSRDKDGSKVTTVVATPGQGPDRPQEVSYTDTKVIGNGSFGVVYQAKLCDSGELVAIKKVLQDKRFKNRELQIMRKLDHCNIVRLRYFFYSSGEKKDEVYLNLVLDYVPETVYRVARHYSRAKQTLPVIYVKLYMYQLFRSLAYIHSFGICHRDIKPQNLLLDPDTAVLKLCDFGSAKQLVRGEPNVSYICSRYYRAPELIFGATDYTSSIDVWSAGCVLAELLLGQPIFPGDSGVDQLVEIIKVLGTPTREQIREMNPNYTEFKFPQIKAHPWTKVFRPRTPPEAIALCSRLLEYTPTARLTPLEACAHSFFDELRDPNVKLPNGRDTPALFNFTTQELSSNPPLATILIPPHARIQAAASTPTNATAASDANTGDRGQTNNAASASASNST

Work on CN1CCN(C(=O)[C@H]2C[C@@H]2c2cnc3[nH]cc(-c4oncc4-c4cccc(F)c4F)c3c2)CC1 (relative stereo) [Compound 142, trans-(2-{3-[4-(2,3-Difluoro-phenyl)-isoxazol-5-yl]-1H-pyrrolo[2,3-b]pyridin-5-yl}-cyclopropyl)-(4-methyl-piperazin-1-yl)-methanone] yielded a pKi (GSK-3β, (AA 1-420)) of 6.00 to 6.70, a pKi (JAK3) of 6.00 to 6.70 and a pKi (KDR) of 6.00 to 6.70.
Fc1cccc(-c2cnoc2-c2n[nH]c3ncccc23)c1F [Compound 31, 3-(4-(2,3-difluorophenyl)isoxazol-5-yl)-1H-pyrazolo[3,4-b]pyridine] was tested, and the pKi (JAK3) was 4.90 to 6.00 and the pKi (KDR) was 4.90 to 6.00.
Fc1cccc(-c2cnoc2-c2c[nH]c3ccc(-c4ccncc4)cc23)c1F [Compound 34, 3-[4-(2,3-Difluoro-phenyl)-isoxazol-5-yl]-5-pyridin-4-yl-1H-indole] gave a pKi (GSK-3β, (AA 1-420)) of 4.90 to 6.00 and a pKi (JAK3) of 4.90 to 6.00.
c1ccc(-c2cnoc2-c2c[nH]c3ncccc23)cc1 [Compound 35, 3-[4-Phenyl-isoxazol-5-yl]-1H-pyrrolo[2,3-b]pyridine] gave a pKi (GSK-3β, (AA 1-420)) of 4.90 to 6.00, a pKi (JAK3) of 6.00 to 6.70 and a pKi (KDR) of 6.00 to 6.70.
For Fc1cc(F)c(F)c(-c2cnoc2-c2c[nH]c3ncccc23)c1 [Compound 39, 3-[4-(2,3,5-Trifluoro-phenyl)-isoxazol-5-yl]-1H-pyrrolo [2,3-b]pyridine], the pKi (GSK-3β, (AA 1-420)) was 4.90 to 6.00, the pKi (JAK3) was 6.00 to 6.70 and the pKi (KDR) was 4.90 to 6.00.
Fc1ccc(F)c(-c2cnoc2-c2c[nH]c3ncccc23)c1F [Compound 41, 3-[4-(2,3,6-Trifluoro-phenyl)-isoxazol-5-yl]-1H-pyrrolo [2,3-b]pyridine] was tested, and the pKi (GSK-3β, (AA 1-420)) was 4.90 to 6.00, the pKi (JAK3) was > 6.70 and the pKi (KDR) was 4.90 to 6.00.
Fc1cccc(-c2cnoc2-c2c[nH]c3ncc(Cl)cc23)c1F [Compound 44, 3-[4-(2,3-Difluoro-phenyl)-isoxazol-5-yl]-5-chloro-1H-pyrrolo[2,3-b]pyridine] gave a pKi (GSK-3β, (AA 1-420)) of 6.00 to 6.70, a pKi (JAK3) of 6.00 to 6.70 and a pKi (KDR) of 6.00 to 6.70.
Fc1cnc2[nH]cc(-c3oncc3-c3cccc(F)c3F)c2c1 [Compound 45, 3-[4-(2,3-Difluoro-phenyl)-isoxazol-5-yl]-5-fluoro-1H-pyrrolo[2,3-b]pyridine] gave a pKi (GSK-3β, (AA 1-420)) of 4.90 to 6.00, a pKi (JAK3) of 4.90 to 6.00 and a pKi (KDR) of 6.00 to 6.70.
Cc1cnc2[nH]cc(-c3oncc3-c3cccc(F)c3F)c2c1 [Compound 46, 3-[4-(2,3-Difluoro-phenyl)-isoxazol-5-yl]-5-methyl-1H-pyrrolo[2,3-b]pyridine] was tested, and the pKi (GSK-3β, (AA 1-420)) was 4.90 to 6.00, the pKi (JAK3) was 6.00 to 6.70 and the pKi (KDR) was 6.00 to 6.70.
Work on OCc1cnc2[nH]cc(-c3oncc3-c3cccc(F)c3F)c2c1 [Compound 55, {3-[4-(2,3-Difluoro-phenyl)-isoxazol-5-yl]-1H-pyrrolo[2,3-b]pyridin-5-yl}-methanol] yielded a pKi (GSK-3β, (AA 1-420)) of 4.90 to 6.00, a pKi (JAK3) of 4.90 to 6.00 and a pKi (KDR) of 6.00 to 6.70.
Fc1cccc(-c2cnoc2-c2c[nH]c3nc(Cl)c(-c4ccncc4)cc23)c1F [Compound 103, 6-Chloro-3-[4-(2,3-difluoro-phenyl)-isoxazol-5-yl]-5-pyridin-4-yl-1H-pyrrolo[2,3-b]pyridine] gave a pKi (GSK-3β, (AA 1-420)) of 4.90 to 6.00 and a pKi (JAK3) of 4.90 to 6.00.
Compound O=C(c1cnc2[nH]cc(-c3oncc3-c3cccc(F)c3F)c2c1)N1CCCC1 [Compound 104, {3-[4-(2,3-Difluoro-phenyl)-isoxazol-5-yl]-1H-pyrrolo[2,3-b]pyridin-5-yl}-pyrrolidin-1-yl-methanone] has a pKi (GSK-3β, (AA 1-420)) of 4.90 to 6.00, a pKi (JAK3) of 4.90 to 6.00 and a pKi (KDR) of 6.00 to 6.70.
In the case of COc1cnc2[nH]cc(-c3nncn3-c3cccc(F)c3F)c2c1 [Compound 108, 3-[4-(2,3-Difluoro-phenyl)-4H-[1,2,4]triazol-3-yl]-5-methoxy-1H-pyrrolo[2,3-b]pyridine], the pKi (GSK-3β, (AA 1-420)) was 4.90 to 6.00 and the pKi (JAK3) was 4.90 to 6.00.
With Fc1cccc(-n2cnnc2-c2c[nH]c3ncc(-c4ccc(N5CCNCC5)nc4)cc23)c1F [Compound 111, 3-[4-(2,3-Difluoro-phenyl)-4H-[1,2,4]triazol-3-yl]-5-(6-piperazin-1-yl-pyridin-3-yl)-1H-pyrrolo[2,3-b]pyridine] the pKi (GSK-3β, (AA 1-420)) was 4.90 to 6.00, the pKi (JAK3) was 4.90 to 6.00 and the pKi (KDR) was 4.90 to 6.00.
Work on Fc1cccc(-c2cnoc2-c2c[nH]c3ncc(CCn4cncn4)cc23)c1F [Compound 132, 3-[4-(2,3-Difluoro-phenyl)-isoxazol-5-yl]-5-(2-[1,2,4]triazol-1-yl-ethyl)-1H-pyrrolo[2,3-b]pyridine] yielded a pKi (GSK-3β, (AA 1-420)) of 6.00 to 6.70, a pKi (JAK3) of 4.90 to 6.00 and a pKi (KDR) of 4.90 to 6.00.
In the case of CN(C)C1CCC(c2cnc3[nH]cc(-c4oncc4-c4cccc(F)c4F)c3c2)CC1 (centres unmarked) [Compound 141, (4-{3-[4-(2,3-Difluoro-phenyl)-isoxazol-5-yl]-1H-pyrrolo[2,3-b]pyridin-5-yl}-cyclohexyl)-dimethylamine], the pKi (GSK-3β, (AA 1-420)) was > 6.70, the pKi (JAK3) was 6.00 to 6.70 and the pKi (KDR) was 4.90 to 6.00.
For NC(=O)c1ccc(-c2cnc3[nH]cc(-c4oncc4-c4cccc(F)c4F)c3c2)cc1 [Compound 153], the pKi (GSK-3β, (AA 1-420)) was 4.90 to 6.00, the pKi (JAK3) was > 6.70 and the pKi (KDR) was 6.00 to 6.70.
OB(O)c1cnc2[nH]cc(-c3oncc3-c3cccc(F)c3F)c2c1 [Compound 154] was tested, and the pKi (GSK-3β, (AA 1-420)) was 4.90 to 6.00, the pKi (JAK3) was > 6.70 and the pKi (KDR) was > 6.70.
With C[N+]1(C)CCN(c2ccc(-c3cnc4[nH]cc(-c5oncc5-c5cccc(F)c5F)c4c3)cc2)CC1 [Compound 155] the pKi (GSK-3β, (AA 1-420)) was > 6.70, the pKi (JAK3) was > 6.70 and the pKi (KDR) was > 6.70.
